Measured values published in the supplement of paper PMC4862054.

Tested on: CAL-120
Experiment: normalised response (% of control), CellTiter-Glo; higher = more viable cells (100 = DMSO, 0 = benzethonium chloride kill control)
Conditions: incubation time: 72 h
Outline: (§1)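 Plates were normalised with 0.1 % DMSO as 100 and a positive kill control as 0. Breast cancer cell lines in 20 µl suspension had been seeded into 384-well plates with compound at 5 concentrations in 10-fold steps over a compound-specific 10,000-fold range, incubated 72 h, and read for CellTox Green fluorescence (485/520 nm) followed by CellTiter-Glo luminescence. Each value is the normalised signal at a single concentration.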

SMILES | normalised response
NC(=O)Nc1cc(-c2cccc(F)c2)sc1C(=O)N[C@H]1CCCNC1 [AZD7762] (1 nM) | 99.7%
C[C@]12CC[C@@H]3c4ccc(O)cc4C[C@@H](CCCCCCCCC[S+]([O-])CCCC(F)(F)C(F)(F)F)[C@H]3[C@@H]1CC[C@@H]2O (some centres not stated) [Fulvestrant] (0.1 nM) | 95.7%
CO[C@H]1/C=C\C=C(/C)C(=O)NC2=CC(=O)C(NCCN(C)C)=C(C[C@@H](C)C[C@H](OC)[C@H](O)[C@@H](C)/C=C(\C)[C@@H]1OC(N)=O)C2=O [Alvespimycin] (1 nM) | 100%
COc1cc2ncnc(Nc3ccc(F)c(Cl)c3)c2cc1NC(=O)/C=C/CN1CCCCC1 [Dacomitinib] (0.1 nM) | 94%
CCCCCCCCCCCCCCCCCCOP(=O)([O-])OC1CC[N+](C)(C)CC1 [Perifosine] (0.25 nM) | 108%
COc1cc2nccc(Oc3ccc(NC(=O)C4(C(=O)Nc5ccc(F)cc5)CC4)cc3)c2cc1OC [Cabozantinib] (1 nM) | 100%

Tested on: BT-549
Experiment: as above
Conditions: incubation time: 72 h
Outline: as §1

SMILES | normalised response
N.N.[Cl][Pt][Cl] [Cisplatin] (0.1 nM) | 106%
Cc1ccc(C(=O)Nc2ccc(CN3CCN(C)CC3)c(C(F)(F)F)c2)cc1C#Cc1cnc2cccnn12 [Ponatinib] (1 nM) | 106%
N[C@@H](CSC(c1ccccc1)(c1ccccc1)c1ccccc1)C(=O)O [S-trityl-L-cysteine] (40 nM) | 99.2%
N#CCNC(=O)c1ccc(-c2ccnc(Nc3ccc(N4CCOCC4)cc3)n2)cc1 [Momelotinib] (1 nM) | 95.1%
CC(=O)Nc1ccc(C(=O)Nc2ccccc2N)cc1 [Tacedinaline] (1 nM) | 96.2%
NC(=O)Nc1cc(-c2cccc(F)c2)sc1C(=O)N[C@H]1CCCNC1 [AZD7762] (1 nM) | 95.6%
C[C@]12CC[C@@H]3c4ccc(O)cc4C[C@@H](CCCCCCCCC[S+]([O-])CCCC(F)(F)C(F)(F)F)[C@H]3[C@@H]1CC[C@@H]2O (some centres not stated) [Fulvestrant] (0.1 nM) | 109%
CO[C@H]1/C=C\C=C(/C)C(=O)NC2=CC(=O)C(NCCN(C)C)=C(C[C@@H](C)C[C@H](OC)[C@H](O)[C@@H](C)/C=C(\C)[C@@H]1OC(N)=O)C2=O [Alvespimycin] (1 nM) | 95.6%
COc1cc2ncnc(Nc3ccc(F)c(Cl)c3)c2cc1NC(=O)/C=C/CN1CCCCC1 [Dacomitinib] (0.1 nM) | 102%
CCCCCCCCCCCCCCCCCCOP(=O)([O-])OC1CC[N+](C)(C)CC1 [Perifosine] (0.25 nM) | 107%
COc1cc2nccc(Oc3ccc(NC(=O)C4(C(=O)Nc5ccc(F)cc5)CC4)cc3)c2cc1OC [Cabozantinib] (1 nM) | 98.8%

Tested on: MDA-MB-468
Experiment: as above
Conditions: incubation time: 72 h
Outline: as §1

SMILES | normalised response
N.N.[Cl][Pt][Cl] [Cisplatin] (0.1 nM) | 97.3%
Cc1ccc(C(=O)Nc2ccc(CN3CCN(C)CC3)c(C(F)(F)F)c2)cc1C#Cc1cnc2cccnn12 [Ponatinib] (1 nM) | 107%
N[C@@H](CSC(c1ccccc1)(c1ccccc1)c1ccccc1)C(=O)O [S-trityl-L-cysteine] (40 nM) | 98.5%
N#CCNC(=O)c1ccc(-c2ccnc(Nc3ccc(N4CCOCC4)cc3)n2)cc1 [Momelotinib] (1 nM) | 98.2%
CC(=O)Nc1ccc(C(=O)Nc2ccccc2N)cc1 [Tacedinaline] (1 nM) | 98.3%
NC(=O)Nc1cc(-c2cccc(F)c2)sc1C(=O)N[C@H]1CCCNC1 [AZD7762] (1 nM) | 102%
C[C@]12CC[C@@H]3c4ccc(O)cc4C[C@@H](CCCCCCCCC[S+]([O-])CCCC(F)(F)C(F)(F)F)[C@H]3[C@@H]1CC[C@@H]2O (some centres not stated) [Fulvestrant] (0.1 nM) | 101%
CO[C@H]1/C=C\C=C(/C)C(=O)NC2=CC(=O)C(NCCN(C)C)=C(C[C@@H](C)C[C@H](OC)[C@H](O)[C@@H](C)/C=C(\C)[C@@H]1OC(N)=O)C2=O [Alvespimycin] (1 nM) | 107%
COc1cc2ncnc(Nc3ccc(F)c(Cl)c3)c2cc1NC(=O)/C=C/CN1CCCCC1 [Dacomitinib] (0.1 nM) | 101%
CCCCCCCCCCCCCCCCCCOP(=O)([O-])OC1CC[N+](C)(C)CC1 [Perifosine] (0.25 nM) | 99%
COc1cc2nccc(Oc3ccc(NC(=O)C4(C(=O)Nc5ccc(F)cc5)CC4)cc3)c2cc1OC [Cabozantinib] (1 nM) | 102%

Tested on: MDA-MB-436
Experiment: as above
Conditions: incubation time: 72 h
Outline: as §1

SMILES | normalised response
N.N.[Cl][Pt][Cl] [Cisplatin] (0.1 nM) | 98.2%
Cc1ccc(C(=O)Nc2ccc(CN3CCN(C)CC3)c(C(F)(F)F)c2)cc1C#Cc1cnc2cccnn12 [Ponatinib] (1 nM) | 108%
N[C@@H](CSC(c1ccccc1)(c1ccccc1)c1ccccc1)C(=O)O [S-trityl-L-cysteine] (40 nM) | 103%
N#CCNC(=O)c1ccc(-c2ccnc(Nc3ccc(N4CCOCC4)cc3)n2)cc1 [Momelotinib] (1 nM) | 97.8%
CC(=O)Nc1ccc(C(=O)Nc2ccccc2N)cc1 [Tacedinaline] (1 nM) | 101%
NC(=O)Nc1cc(-c2cccc(F)c2)sc1C(=O)N[C@H]1CCCNC1 [AZD7762] (1 nM) | 106%
C[C@]12CC[C@@H]3c4ccc(O)cc4C[C@@H](CCCCCCCCC[S+]([O-])CCCC(F)(F)C(F)(F)F)[C@H]3[C@@H]1CC[C@@H]2O (some centres not stated) [Fulvestrant] (0.1 nM) | 105%
CO[C@H]1/C=C\C=C(/C)C(=O)NC2=CC(=O)C(NCCN(C)C)=C(C[C@@H](C)C[C@H](OC)[C@H](O)[C@@H](C)/C=C(\C)[C@@H]1OC(N)=O)C2=O [Alvespimycin] (1 nM) | 104%
COc1cc2ncnc(Nc3ccc(F)c(Cl)c3)c2cc1NC(=O)/C=C/CN1CCCCC1 [Dacomitinib] (0.1 nM) | 102%
CCCCCCCCCCCCCCCCCCOP(=O)([O-])OC1CC[N+](C)(C)CC1 [Perifosine] (0.25 nM) | 116%
COc1cc2nccc(Oc3ccc(NC(=O)C4(C(=O)Nc5ccc(F)cc5)CC4)cc3)c2cc1OC [Cabozantinib] (1 nM) | 96.6%

Tested on: CAL-51
Experiment: as above
Conditions: incubation time: 72 h
Outline: as §1

SMILES | normalised response
N.N.[Cl][Pt][Cl] [Cisplatin] (0.1 nM) | 115%
Cc1ccc(C(=O)Nc2ccc(CN3CCN(C)CC3)c(C(F)(F)F)c2)cc1C#Cc1cnc2cccnn12 [Ponatinib] (1 nM) | 101%
N[C@@H](CSC(c1ccccc1)(c1ccccc1)c1ccccc1)C(=O)O [S-trityl-L-cysteine] (40 nM) | 131%
N#CCNC(=O)c1ccc(-c2ccnc(Nc3ccc(N4CCOCC4)cc3)n2)cc1 [Momelotinib] (1 nM) | 128%
CC(=O)Nc1ccc(C(=O)Nc2ccccc2N)cc1 [Tacedinaline] (1 nM) | 124%
NC(=O)Nc1cc(-c2cccc(F)c2)sc1C(=O)N[C@H]1CCCNC1 [AZD7762] (1 nM) | 95.7%
C[C@]12CC[C@@H]3c4ccc(O)cc4C[C@@H](CCCCCCCCC[S+]([O-])CCCC(F)(F)C(F)(F)F)[C@H]3[C@@H]1CC[C@@H]2O (some centres not stated) [Fulvestrant] (0.1 nM) | 123%
CO[C@H]1/C=C\C=C(/C)C(=O)NC2=CC(=O)C(NCCN(C)C)=C(C[C@@H](C)C[C@H](OC)[C@H](O)[C@@H](C)/C=C(\C)[C@@H]1OC(N)=O)C2=O [Alvespimycin] (1 nM) | 112%
COc1cc2ncnc(Nc3ccc(F)c(Cl)c3)c2cc1NC(=O)/C=C/CN1CCCCC1 [Dacomitinib] (0.1 nM) | 71.8%
CCCCCCCCCCCCCCCCCCOP(=O)([O-])OC1CC[N+](C)(C)CC1 [Perifosine] (0.25 nM) | 102%
COc1cc2nccc(Oc3ccc(NC(=O)C4(C(=O)Nc5ccc(F)cc5)CC4)cc3)c2cc1OC [Cabozantinib] (1 nM) | 122%

Tested on: HCC1937
Experiment: as above
Conditions: incubation time: 72 h
Outline: as §1

SMILES | normalised response
N.N.[Cl][Pt][Cl] [Cisplatin] (0.1 nM) | 101%
Cc1ccc(C(=O)Nc2ccc(CN3CCN(C)CC3)c(C(F)(F)F)c2)cc1C#Cc1cnc2cccnn12 [Ponatinib] (1 nM) | 98.4%
